Reference: patent US7217688B2, “Methods and compositions for derepression of IAP-inhibited caspase” (The Burnham Institute, priority 2005, dated 2007)
Blank lines part the entries; values can stand above or below the compound they belong to. Square brackets hold non-standard residues; d marks the D form. Side chains are listed from the residue outwards. Peptide text beside a SMILES is read from it. * marks the point of attachment. X1 = CCN(CC)c1ccc2c(-c3ccc(S(=O)(=O)*)cc3S(=O)(=O)O)c3ccc(=[N+](CC)CC)cc-3oc2c1; d2Nal = N[C@H](Cc1ccc2ccccc2c1)C(=O)O; Ahx = NCCCCCC(=O)O

Assays:
[1] = system: PPC1 prostate cancer cells; assay: PPC1 tumor xenograft; assay type: in vivo, Balb/C nu-/nu- mice; details: 30 mg/kg i.p. for 2 or 3 days
From the text: Similar data was obtained using TPI 1396-22 (see FIG. 33a and 33b). […] In FIG. 33b, the mice were sacrificed at day 19 and the tumors excised and weighed.

[2] = system: PPC1, ALVA31, DU145 and HeLa cells; assay: sensitization to TRAIL-induced apoptosis; assay type: cell-based; details: 1 µM
Method: Similar tests of the effects of polyphenyl urea compounds on apoptosis induction by the biological agent TRAIL, an apoptosis inducing member of the Tumor Necrosis Factor (TNF) family were also performed.

Jurkat cells = assay: caspase-3 and caspase-7 activity in whole Jurkat cells; assay type: cell-based; details: 8 μM, 20 hours
[3] = molecular target: XIAP binding to the SMAC peptide (Homo sapiens, UniProt P98170); assay: SMAC competition / SMAC binding assay (biotinylated SMAC 7-mer, GST-XIAP)
XIAP binding to the SMAC peptide, sequence (P98170 whole entry): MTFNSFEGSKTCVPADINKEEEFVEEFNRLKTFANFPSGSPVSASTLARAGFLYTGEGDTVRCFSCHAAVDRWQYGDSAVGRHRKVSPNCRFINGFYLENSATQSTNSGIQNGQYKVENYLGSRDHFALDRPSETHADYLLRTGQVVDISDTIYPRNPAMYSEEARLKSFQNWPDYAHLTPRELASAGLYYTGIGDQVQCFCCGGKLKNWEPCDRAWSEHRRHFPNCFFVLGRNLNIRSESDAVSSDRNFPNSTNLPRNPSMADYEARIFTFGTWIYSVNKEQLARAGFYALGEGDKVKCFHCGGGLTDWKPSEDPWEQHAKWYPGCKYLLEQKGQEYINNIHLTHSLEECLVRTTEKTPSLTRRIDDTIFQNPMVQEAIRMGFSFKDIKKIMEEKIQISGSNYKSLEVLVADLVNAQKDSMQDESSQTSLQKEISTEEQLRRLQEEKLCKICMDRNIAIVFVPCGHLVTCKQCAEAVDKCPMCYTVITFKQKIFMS
Method: Peptide compounds containing unnatural amino acids in the 792 series, 792-33 and 792-35 (see FIG. 12 and 20 and Example XI), and an active compound in the TPI 1332 series, TPI 1332-69, were tested for binding activity in the SMAC binding assay as described above in Example X. For this assay, biotinylated SMAC 7-mer peptide (50 ng) was bound to 96 well plates coated with NeutrAvidin (Pierce, Rockford, Ill.) at 1 mg/ml in 100 μl per well of 50 mM HEPES pH 7.4, 100 mM NaCl, 1 mM EDTA, 10% sucrose, 0.1% CHAPS, 10 mM DTT.

HeLa cells = assay: apoptosis of transfected HeLa cells (Annexin V); assay type: cell-based; details: 5 μM, 20 hours
Method: In addition to transfecting the cells with full-length XIAP, analogous assays were performed with HeLa cells transfected with plasmids over-expressing various XIAP mutants. […] The mutant was produced by site-directed mutagenesis to modify positions 148, 219, 223, 314 and 323 to contain alanine. HeLa cells were also transiently transfected with plasmids encoding Bcl-XL, an anti-apoptotic protein that operates upstream of caspases to suppress Cytochrome C release from mitochondria. HeLa cells (2.5×10^5) were seeded onto six well plates in 2 mL DMEM H21 with 5% FBS. After 24 hrs, cells were transfected (Gene Porter) with plasmids. […] Both floating and adherent cells were then recovered from cultures, washed, and apoptosis was determined by Annexin V staining using flow cytometry.
Bcl-XL over-expression did afford resistance to traditional anticancer drugs such as etoposide and CrmA (a caspase-8 inhibitor), and protected cells from apoptosis induced by TRAIL, confirming that these anti-apoptotic proteins were functional in these experiments.

[4] = system: Du145 prostate cancer cells; assay: sensitization to anticancer drugs (MTT assay); assay type: cell-based; details: 10 μM, 48 hours
Method: The percentage of viable cells relative to control was determined using a MTT (3-(4,5-dimethylthiazolyl-2)-2,5-diphenyltetrazolium bromide) assay which is commercially available (Sigma). […] Similar results were obtained for PPC1 (FIG. 31b) and PC3 (FIG. 31c) prostate cancer cells treated with VP16, DOX, or TAXOL, and for H460 (FIG. 31d) lung cancer cells treated with VP16 or DOX.

Jurkat leukemia cells = assay: Jurkat cell death (Annexin V / propidium iodide flow cytometry); assay type: cell-based
Method: The following assay was used to test the ability of individual compounds from the TPI 1396 and TPI 1391 libraries to induce apoptosis of cultured tumor cell lines. Each of the compounds listed in Table IX was individually added to Jurkat leukemia cells (6.25×10^5 cells/mL) in RPMI containing 2.5% FBS at various concentrations for 20 hours. After incubation, cells were washed and stained with FITC-conjugated Annexin V antibody and propidium iodide (Biovision; Mountain View, Calif.). Cells were incubated for 20 minutes at room temperature in the dark and fluorescence was measured by flow cytometry (FACScan, Immunocytometry system; Becton-Dickinson; San Jose, Calif.). Cells staining positive for Annexin V were deemed non-viable.

[5] = system: normal bone marrow mononuclear cells; assay: normal bone marrow cell toxicity (Annexin V); assay type: cell-based; details: 5 μM, 20 hours
Method: After incubation, cells were washed, stained with FITC-conjugated Annexin V antibody and propidium iodide, and fluorescence measured by flow cytometry as described above.

[6] = system: tumor cells with antigen-specific T cells; assay: CTL-mediated lysis (51Cr release); assay type: cell-based; details: 10 μM, 4 hours
Method: After 4 hours, ^51Cr release was measured. Data shown in FIG. 39 are expressed as a percentage of total release induced by detergent lysis, and data represent mean±standard deviation of duplicate determinations.

XIAP-inhibited caspase-3 = molecular target: T1, XIAP-inhibited caspase-3 (Homo sapiens, UniProt P98170); assay: caspase derepression assay (XIAP-inhibited caspase-3, Ac-DEVD-AFC hydrolysis); assay type: biochemical; details: for activity in the derepression assay using full length XIAP: active / inactive
T1 construct: in the derepression assay using full length XIAP; made in house; host or cells: bacteria
T1 sequence (P98170 whole entry): as above
Method: (§1) Caspase activity was assayed by release of 7-amino-4-trifluoromethyl-coumarin (AFC) from Ac-DEVD-AFC synthetic peptide using a Molecular Devices Spectromax 340 (see Zhou et al., J. Biol. Chem. 272:7797–7800 (1997)). […] The ratio of Vmax for hydrolysis of Ac-DEVD-AFC in the presence and absence of the candidate mixture was calculated and used to identify those that contain an agent that derepresses an IAP-inhibited caspase.
(§2) Screening of each mixture from the DCR390, TPI 1239 or TPI 1328 library, respectively, using the above described assay was carried out as follows. Each mixture was aliquoted in a 25 microliter volume and in duplicate to a well of a 96 well microtiter plate. […] Fluorescence of liberated AFC was immediately detected from each well for 30 minutes at 30 second intervals. The Vmax for hydrolysis of AC-DEVD-AFC from each well was measured using the softmax software package. Results of the screen for the DCR390 library are shown in Table I. Sets of mixtures having the same position fixed with different respective amino acids are arranged in 6 sections identified with the position number. […] The mixture in each section are arranged in descending order according to apparent velocity in the second column.
Briefly, recombinant proteins were produced in bacteria and purified as described, for example, in Deveraux et al., Nature 388:300–304(1997). […] Generation of fluorogenic AFC (7-amino-4-trifluoromethyl coumarin) product was measured with a spectrofluorometric plate reader in kinetic mode for 30 minutes at 37° C. using excitation and emission wavelengths of 405 nm and 510 nm, respectively. […] Control reactions lacked XIAP, and all assays were conducted in the linear range of substrate hydrolysis to avoid substrate depletion artifacts.

[7] = system: mouse embryo fibroblasts (MEFs), human prostate epithelial cells, peripheral blood lymphocytes (PBLs); assay: normal cell viability (annexin-V, 2 days); assay type: cell-based; set-up: dose or concentration left out as unconfirmed
Method: After 2 days, cell viability was assessed by annexin-V staining.

[8] = system: PC-3 and LNCaP prostate cancer cell lines; assay: clonogenic survival (colony formation) assay; assay type: cell-based; details: 10 μM
Method: In addition to short-term cytotoxicity assays, selected polyphenylurea compounds were tested for effects on clonogenic survival of cancer cells in colony formation assays, which can be considered a more stringent test of anticancer activity.

[9] = system: U937 leukemia cells over-expressing XIAP; assay: U937-Neo versus U937-XIAP cell death (Annexin V); assay type: cell-based; details: 5 or 8 μM, 20 hours
Method: After incubation, cells were washed, stained with FITC-conjugated Annexin V antibody and propidium iodide, and fluorescence measured by flow cytometry as described in Example XI.
Equal amounts of protein were subjected to SDS-PAGE (4–20% gradient gels from ISC BioExpress, Kaysville, Utah.), followed by transfer to nitrocellulose membranes. […] Secondary antibodies consisted of horseradish peroxidase (HRP)-conjugated goat anti-mouse IgG (Bio-Rad, Hercules, Calif.). Detection was performed by the enhanced chemiluminescence (ECL) method. […] Lysates were prepared from the cells, normalized for total protein content and analyzed by SDS-PAGE immunoblotting using antibodies specific for XIAP, caspase-3, and β-actin.

[10] = system: HCT-116 colon cancer cells; assay: HCT-116 tumor xenograft; assay type: in vivo, Balb/C nu-/nu- mice; details: 30 mg/kg i.p. on days 6, 7 and 8
Method: Additional experiments were performed using a different tumor xenograft model. HCT-116 colon cancer cells (2.5 million) were injected subcutaneously in the flanks of female Balb/C nu−/nu− mice. […] Tumor volume was measured by external calipers at least twice weekly for 19 days (see FIG. 32c). On day 19, the mice were sacrificed and the tumors were excised and weighed.

caspase-3 = molecular target: T2, caspase-3 (Homo sapiens, UniProt P42574); assay: caspase-3 activity without XIAP (control arm of derepression assay); assay type: biochemical; details: TPI 1239 library; ratio, no XIAP
T2 construct: made in house; host or cells: bacteria
T2 sequence (P42574 29-175 limits assumed): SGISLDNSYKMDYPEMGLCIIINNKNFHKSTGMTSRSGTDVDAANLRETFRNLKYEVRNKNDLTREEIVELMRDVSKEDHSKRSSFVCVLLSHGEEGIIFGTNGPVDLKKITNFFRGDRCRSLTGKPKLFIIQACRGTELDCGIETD
T2 sequence (P42574 176-277 limits assumed): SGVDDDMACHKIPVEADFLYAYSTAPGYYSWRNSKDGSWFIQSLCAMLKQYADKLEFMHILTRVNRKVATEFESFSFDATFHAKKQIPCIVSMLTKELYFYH
Method: as §1, §2

His-BIR2 of XIAP = assay: rhodamine fluorescence polarization competitive binding assay; details: titrated with TPI 1396-11; labeled compound 2.4 μM, His-BIR2 79 μM; read-out: IC50 of the labeled candidate compound
Method: In a second assay, competitive binding of candidate derepressors of IAP inhibited caspase was measured by a fluorescence polarization procedure. Fixed quantities of rhodamine-labeled candidate compound and IAP fragment were titrated against varying concentrations of a known IAP-binding compound. […] Polarization (millipolars or mP) was plotted against log concentration (log []) of the known IAP-binding compound. A plot of mP versus log concentration of the IAP-binding compound was then used to calculate the binding constant for the candidate compound-the IAP fragment pair.
Plates were incubated for one hour at room temperature, after which polarization of rhodamine was read in an LJL Analyst HT® multimode reader with excitation at 530 nm and emission at 580 nm.

tumor tissue = assay: in vivo caspase activation in tumors (immunoblot, immunohistochemistry); set-up: species or system Balb/c mice; details: 30 mg/kg i.p. for 3 successive days
stability in human serum = assay type: in vitro ADME; details: expected
[11] = system: NCI panel of 60 tumor cell lines; assay: NCI panel of 60 tumor cell lines, protein-based colorimetric assay; set-up: species or system human; details: 48 hours
Method: Selected polyphenylurea compounds were tested on the National Cancer Institute (NCI) panel of 60 tumor cell lines (see FIG. 28a and FIG. 29).

[12] = mouse, in vivo
Method: Selected polyphenylurea compounds were tested for anti-tumor activity in vivo, using human tumor xenografts grown in immunocompromised mice. First, it was determined what doses of polyphenylurea compounds were tolerated by mice. […] For tumor xenograft studies, PPC1 prostate cancer cells (2.5 million) were injected subcutaneously into the flanks of 8 male Balb/C nu−/nu− mice. […] Tumor growth was monitored at least twice weekly by external calipers (see FIG. 32b). At 24 days after compound injections, mice were sacrificed and tumors were excised and weighed (see FIG. 32b, inset).
Sera were assayed for BUN, bilirubin, ALT and AST.

SMILES: COc1ccc(CCN2CCC[C@@H]2CN(C(=O)Nc2ccccc2)[C@@H](CNC(=O)Nc2ccccc2)CC2CCCCC2)cc1 [TPI 1396-34]
- tumor growth / tumor size [1]: reduced tumor size
- effect on TRAIL-induced apoptosis [2]: sensitized
- caspase activation (Jurkat cells): induced caspase activation
- competition with XIAP binding to the SMAC peptide [3]: does not compete
- apoptosis in HeLa cells over-expressing Bcl-XL (HeLa cells): not blocked
- apoptosis in HeLa cells over-expressing full-length XIAP (HeLa cells): protected
- apoptosis in HeLa cells transfected with a control vector (HeLa cells): induced apoptosis
- effect on cytotoxicity of VP16, DOX and TAXOL [4]: significantly increased dose-dependent cytotoxicity
- time to half-maximal killing (Jurkat leukemia cells; 10 μM): approximately 12 hours
- time to maximum killing (Jurkat leukemia cells; 10 μM): about 24 hours
- apoptosis with 100 μM zVAD-fmk (Jurkat leukemia cells; 20 hours): suppressible
- toxicity to normal bone marrow cells [5]: little toxicity
- effect on CTL-mediated lysis [6]: sensitizes tumor targets to CTL-mediated lysis
- activity in the derepression assay using full length XIAP (XIAP-inhibited caspase-3): active
- increase of percentage cell death above background [7]: less than one-fold
- colony formation [8]: < 5 % of control
- effect of XIAP over-expression on apoptosis induction [9]: over-expression of XIAP rendered U937 cells resistant
- tumor size [10]: tumor size was reduced

- Vmax(mis + casp3 + XIAP) Vmax(casp3 + XIAP) (XIAP-inhibited caspase-3; TPI 1239 library, ratio in the presence of XIAP): 3.8 ± 1.7
- Vmax(mix + casp3) Vmax(casp3) (caspase-3): 0.8 ± 0.0
SMILES: CC[C@H](C)[C@H](NC(=O)[C@@H]1CCCN1C(=O)[C@@H](NC(=O)[C@H](C)N)C(C)C)C(=O)N[C@@H](C)C(=O)N[C@@H](CCC(N)=O)C(=O)N[C@@H](CCCCN)C(N)=O [SMAC, H-Ala-Val-Pro-Ile-Ala-Gln-Lys-NH2, reference compound] (H-AVPIAQK-NH2)

SMILES: CCN(CC)c1ccc2c(-c3ccc(S(=O)(=O)NCCCCCC(=O)NCCCC[C@H](NC(=O)[C@@H](Cc4ccc5ccccc5c4)NC(=O)[C@H](Cc4c[nH]c5ccccc45)NC(=O)[C@H](Cc4c[nH]c5ccccc45)NC(=O)[C@H](C)N)C(N)=O)cc3S(=O)(=O)O)c3ccc(=[N+](CC)CC)cc-3oc2c1 [TPI 1566-11] (H-AWW[d2Nal]K([Ahx-X1])-NH2)
- IC50 (His-BIR2 of XIAP): 10 µM

SMILES: CN(CCCCC(CNC(=O)Nc1ccccc1)N(CC1CCCN1CCCCC1CCCCC1)C(=O)Nc1ccccc1)C(=O)Nc1ccccc1 (stereo not shown) [TPI 1396-12]
- caspase activation in tumors in vivo (tumor tissue): induce caspase activation in tumors in vivo
- tumor proliferation (surrogate marker PCNA) (tumor tissue): no effect on tumor proliferation
- stable in human serum (stability in human serum): greater than 48 hours
- average LD50 for the 60 cell lines [11]: 7.6 ± 12 µM
- median LD50 for the 60 cell lines [11]: 6 µM
- % nonviable cells (Jurkat leukemia cells; 1 µM): 15%
- % nonviable cells (Jurkat leukemia cells; 5 µM): 95%
- % nonviable cells (Jurkat leukemia cells; 10 μM): 89%
- % nonviable cells (Jurkat leukemia cells; 25 µM): 89%
- % nonviable cells (Jurkat leukemia cells; 50 µM): 85%
- Activity (relative caspase-3 activity, ratio of Vmax with compound to Vmax of caspase-3 and XIAP controls) (XIAP-inhibited caspase-3; Table X, R2 = L-Proline): 2.7
- activity in the derepression assay using full length XIAP (XIAP-inhibited caspase-3): active
- maximum tolerated dose [12]: 200 to 400 mg/kg
